Data as given in patent US8802597B2, “Herbicidal pyrimidines” (E I du Pont de Nemours and Company, priority 2003, dated 2014).
Like-named read-outs stand apart in the source and are kept apart here.

How the values were obtained:
Type in all cases: in vivo
[1] = test system: Surinam grass (Brachiaria decumbens); assay: Test B pre/postemergence; conditions: Urochloa decumbens; for pest or weed control at 125 g/ha: 125 g ai/ha; for pest or weed control at 62 g/ha: 62 g ai/ha
Method in brief: (§1)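 Formulation: non-phytotoxic solvent blend with surfactant. Timing: preemergence on seeds, postemergence at 1- to 4-leaf (2–18 cm). Assessment: visual, 0–100 against controls, after 13–15 days' greenhouse growth.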

[2] = test system: barnyardgrass (Echinochloa crus-galli); assay: Test B pre/postemergence; conditions: Echinochloa crus-galli, scale 0 to 100 (0 no effect, 100 complete control); for pest or weed control at 62 g/ha: 62 g ai/ha; for pest or weed control at 125 g/ha: 125 g ai/ha
Method in brief: as §1

[3] = test system: cocklebur (Xanthium strumarium); assay: Test B pre/postemergence; conditions: for pest or weed control at 125 g/ha: 125 g ai/ha
Method in brief: as §1

corn (Zea mays) = assay: Test B pre/postemergence; conditions: Zea mays
Method in brief: as §1

[4] = test system: crabgrass (Digitaria sanguinalis); assay: Test B pre/postemergence; conditions: Digitaria sanguinalis; for pest or weed control at 62 g/ha: 62 g ai/ha; for pest or weed control at 125 g/ha: 125 g ai/ha
Method in brief: as §1

[5] = test system: giant foxtail (Setaria faberii); assay: Test B pre/postemergence; conditions: Setaria faberi; for pest or weed control at 125 g/ha: 125 g ai/ha; for pest or weed control at 62 g/ha: 62 g ai/ha
Method in brief: as §1

[6] = test system: lambsquarters (Chenopodium album); assay: Test B pre/postemergence; conditions: Chenopodium album; for pest or weed control at 62 g/ha: 62 g ai/ha; for pest or weed control at 125 g/ha: 125 g ai/ha
Method in brief: as §1

[7] = test system: morningglory (Ipomoea coccinea); assay: Test B pre/postemergence; conditions: Ipomoea; for pest or weed control at 62 g/ha: 62 g ai/ha; for pest or weed control at 125 g/ha: 125 g ai/ha
Method in brief: as §1

[8] = test system: pigweed (Amaranthus retroflexus); assay: Test B pre/postemergence; conditions: Amaranthus retroflexus; for pest or weed control at 62 g/ha: 62 g ai/ha; for pest or weed control at 125 g/ha: 125 g ai/ha
Method in brief: as §1

[9] = test system: velvetleaf (Abutilon theophrasti); assay: Test B pre/postemergence; conditions: Abutilon theophrasti; for pest or weed control at 62 g/ha: 62 g ai/ha; for pest or weed control at 125 g/ha: 125 g ai/ha
Method in brief: as §1

[10] = test system: wheat (Triticum aestivum); assay: Test B pre/postemergence; conditions: Triticum aestivum, scale 0 to 100 (0 no effect, 100 complete control); for plant injury at 62 g/ha: 62 g ai/ha; for plant injury at 125 g/ha: 125 g ai/ha
Method in brief: as §1

[11] = test system: blackgrass (Alopecurus myosuroides); assay: Test B postemergence; conditions: Alopecurus myosuroides, post-emergence, scale 0 to 100 (0 no effect, 100 complete control), read-out: Blackgrass plant response rating
Method in brief: as §1

wild oat (Avena fatua) = assay: Test B postemergence; conditions: Avena fatua, post-emergence, scale 0 to 100 (0 no effect, 100 complete control), read-out: Oat, Wild plant response rating
Method in brief: as §1

[12] = test system: barnyardgrass (Echinochloa crus-galli); assay: Test B flooded paddy test; conditions: Flood, scale 0 to 100
Method in brief: (§2)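 Rice, umbrella sedge, duck salad and barnyardgrass grown to 2-leaf stage under flooded paddy conditions and treated with formulated test chemicals. Kept in greenhouse 13–15 days, then visually rated against untreated controls on a 0–100 scale (0 no effect, 100 complete control).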

[13] = test system: duck salad (Heteranthera limosa); assay: Test B flooded paddy test; conditions: Heteranthera limosa, Flood, scale 0 to 100, read-out: Plant response rating, Ducksalad
Method in brief: as §2

rice (Oryza sativa) = assay: Test B flooded paddy test; conditions: Flood, scale 0 to 100
Method in brief: as §2

[14] = test system: umbrella sedge (Cyperus difformis); assay: Test B flooded paddy test; conditions: Flood, scale 0 to 100
Method in brief: as §2

[15] = post-emergence, Postemergence, scale 0 to 100 (0 no effect, 100 complete control), read-out: Surinam Grass plant response rating
[16] = post-emergence, Postemergence, read-out: Barnyardgrass plant response rating
[17] = pre-emergence, Preemergence, read-out: Plant response rating, Barnyardgrass
[18] = post-emergence, Postemergence, scale 0 to 100 (0 no effect, 100 complete control), read-out: Crabgrass plant response rating
[19] = post-emergence, Postemergence, scale 0 to 100 (0 no effect, 100 complete control), read-out: Foxtail, Giant plant response rating
[20] = post-emergence, Postemergence, scale 0 to 100 (0 no effect, 100 complete control), read-out: Lambsquarters plant response rating
[21] = post-emergence, Postemergence, scale 0 to 100 (0 no effect, 100 complete control), read-out: Morningglory plant response rating
[22] = post-emergence, Postemergence, scale 0 to 100 (0 no effect, 100 complete control), read-out: Pigweed plant response rating
[23] = post-emergence, Postemergence, scale 0 to 100 (0 no effect, 100 complete control), read-out: Velvetleaf plant response rating
[24] = post-emergence, Postemergence, read-out: Wheat plant response rating
[25] = pre-emergence, Preemergence, read-out: Plant response rating, Wheat

Work on `Nc1nc(C2CC2)nc(C(=O)[O-])c1Cl.[Na+]` [Compound 77, 6-amino-5-chloro-2-cyclopropyl-4-pyrimidinecarboxylic acid monosodium salt] yielded a pest or weed control at 125 g/ha [1, 15] of 80%, a pest or weed control at 62 g/ha [1, 15] of 70% and a pest or weed control at 125 g/ha ([1]; pre-emergence, Preemergence, scale 0 to 100 (0 no effect, 100 complete control), read-out: Plant response rating, Surinam Grass) of 90%. For the same compound, the pest or weed control at 62 g/ha ([1]; pre-emergence, Preemergence, scale 0 to 100, 0 no effect, 100 complete control, read-out: Plant response rating, Surinam Grass) was 60%, the pest or weed control at 62 g/ha [2, 16] was 60% and the pest or weed control at 125 g/ha [2, 16] was 90%. The pest or weed control at 62 g/ha [2, 17] was 70%, the pest or weed control at 125 g/ha [2, 17] was 90% and the “Cocklebur plant response rating” value ([3]; Postemergence, 62 g ai/ha, scale 0 to 100 (0 no effect, 100 complete control)) was 70. For the same compound, the pest or weed control at 125 g/ha ([3]; Xanthium strumarium, post-emergence, Postemergence, scale 0 to 100 (0 no effect, 100 complete control), read-out: Cocklebur plant response rating) was 100%, the pest or weed control at 62 g/ha ([3]; Xanthium strumarium, pre-emergence, Preemergence, 62 g ai/ha, scale 0 to 100, 0 no effect, 100 complete control, read-out: Plant response rating, Cocklebur) was 80% and the pest or weed control at 125 g/ha ([3]; Xanthium strumarium, pre-emergence, Preemergence, scale 0 to 100 (0 no effect, 100 complete control), read-out: Plant response rating, Cocklebur) was 100%. It also gave a plant injury at 62 g/ha (corn (Zea mays); post-emergence, Postemergence, 62 g ai/ha, scale 0 to 100 (0 no effect, 100 complete control), read-out: Corn plant response rating) of 30%, a plant injury at 125 g/ha (corn (Zea mays); post-emergence, Postemergence, 125 g ai/ha, scale 0 to 100 (0 no effect, 100 complete control), read-out: Corn plant response rating) of 80% and a Corn plant response rating (crop injury, 0 = no effect, 100 = complete kill) at 62 g/ha (corn (Zea mays); pre-emergence, Preemergence, 62 g ai/ha, scale 0 to 100, 0 no effect, 100 complete control) of 70%. For the same compound, the Corn plant response rating (crop injury, 0 = no effect, 100 = complete kill) at 125 g/ha (corn (Zea mays); pre-emergence, Preemergence, 125 g ai/ha, scale 0 to 100 (0 no effect, 100 complete control)) was 80%, the pest or weed control at 62 g/ha [4, 18] was 70% and the pest or weed control at 125 g/ha [4, 18] was 80%. The pest or weed control at 62 g/ha ([4]; pre-emergence, Preemergence, scale 0 to 100, 0 no effect, 100 complete control, read-out: Plant response rating, Crabgrass) was 80%, the pest or weed control at 125 g/ha ([4]; pre-emergence, Preemergence, scale 0 to 100 (0 no effect, 100 complete control), read-out: Plant response rating, Crabgrass) was 90% and the pest or weed control at 125 g/ha [5, 19] was 80%. For the same compound, the pest or weed control at 62 g/ha [5, 19] was 70%, the pest or weed control at 125 g/ha ([5]; pre-emergence, Preemergence, scale 0 to 100 (0 no effect, 100 complete control), read-out: Plant response rating, Foxtail, Giant) was 90% and the pest or weed control at 62 g/ha ([5]; pre-emergence, Preemergence, scale 0 to 100, 0 no effect, 100 complete control, read-out: Plant response rating, Foxtail, Giant) was 70%. It also gave a pest or weed control at 62 g/ha [6, 20] of 100%, a pest or weed control at 125 g/ha [6, 20] of 100% and a pest or weed control at 62 g/ha ([6]; pre-emergence, Preemergence, scale 0 to 100, 0 no effect, 100 complete control, read-out: Plant response rating, Lambsquarters) of 100%. The pest or weed control at 125 g/ha ([6]; pre-emergence, Preemergence, scale 0 to 100 (0 no effect, 100 complete control), read-out: Plant response rating, Lambsquarters) was 100%, the pest or weed control at 62 g/ha [7, 21] was 100% and the pest or weed control at 125 g/ha [7, 21] was 100%. For the same compound, the pest or weed control at 62 g/ha ([7]; pre-emergence, Preemergence, scale 0 to 100, 0 no effect, 100 complete control, read-out: Plant response rating, Morningglory) was 100%, the pest or weed control at 125 g/ha ([7]; pre-emergence, Preemergence, scale 0 to 100 (0 no effect, 100 complete control), read-out: Plant response rating, Morningglory) was 100% and the pest or weed control at 62 g/ha [8, 22] was 90%. The pest or weed control at 125 g/ha [8, 22] was 100%, the pest or weed control at 62 g/ha ([8]; pre-emergence, Preemergence, scale 0 to 100, 0 no effect, 100 complete control, read-out: Plant response rating, Pigweed) was 100% and the pest or weed control at 125 g/ha ([8]; pre-emergence, Preemergence, scale 0 to 100 (0 no effect, 100 complete control), read-out: Plant response rating, Pigweed) was 100%. The pest or weed control at 62 g/ha [9, 23] was 80%, the pest or weed control at 125 g/ha [9, 23] was 90% and the pest or weed control at 62 g/ha ([9]; pre-emergence, Preemergence, scale 0 to 100, 0 no effect, 100 complete control, read-out: Plant response rating, Velvetleaf) was 80%. For the same compound, the pest or weed control at 125 g/ha ([9]; pre-emergence, Preemergence, scale 0 to 100 (0 no effect, 100 complete control), read-out: Plant response rating, Velvetleaf) was 100%, the plant injury at 62 g/ha [10, 24] was 50% and the plant injury at 125 g/ha [10, 24] was 60%. For the same compound, the plant injury at 62 g/ha [10, 25] was 70%, the plant injury at 125 g/ha [10, 25] was 70% and the pest or weed control at 62 g/ha ([11]; 62 g ai/ha) was 50%. It also gave a pest or weed control at 125 g/ha ([11]; 125 g ai/ha) of 60%, a pest or weed control at 62 g/ha (wild oat (Avena fatua); 62 g ai/ha) of 50% and a pest or weed control at 125 g/ha (wild oat (Avena fatua); 125 g ai/ha) of 60%. The pest or weed control at 500 g/ha ([12]; Echinochloa crus-galli, 500 g ai/ha, read-out: Plant response rating, Barnyardgrass) was 60%, the “Plant response rating, Barnyardgrass” value ([12]; 125 g ai/ha) was 0 and the pest or weed control at 125 g/ha ([13]; 125 g ai/ha) was 40%. For the same compound, the pest or weed control at 500 g/ha ([13]; 500 g ai/ha) was 80%, the “Plant response rating, Rice” value (rice (Oryza sativa); 125 g ai/ha) was 0 and the plant injury at 500 g/ha (rice (Oryza sativa); Oryza sativa, 500 g ai/ha, read-out: Plant response rating, Rice) was 50%. For the same compound, the “Plant response rating, Sedge, Umbrella” value ([14]; 125 g ai/ha) was 0 and the “Plant response rating, Sedge, Umbrella” value ([14]; 500 g ai/ha) was 40.
